Assay results reported in the NIST ThermoML archive (doi:10.1021/je049609w).

Assays:
[1] = xn = mol fraction of the nth substance listed; details: 101 kPa, Liquid
[2] = refractive index (Na D-line) (dimensionless); xn = mol fraction of the nth substance listed; details: 101 kPa, Liquid

C1COCCO1 [1,4-dioxane] + CCOC(C)=O
Details | mass density, 298.15 K [kg/m3] | mass density, 303.15 K [kg/m3] | mass density, 308.15 K [kg/m3] | refractive index, 298.15 K | refractive index, 303.15 K | refractive index, 308.15 K | speed of sound, 298.15 K [m/s] | viscosity, 298.15 K [mPa·s] | viscosity, 303.15 K [mPa·s] | viscosity, 308.15 K [mPa·s]
[1], x1 = 0.1004 | 906.2 | 900 | 893.9 | – | – | – | 1174 | 0.467 | 0.442 | 0.417
[1], x1 = 0.2001 | 918.8 | 912.7 | 906.6 | – | – | – | 1193 | 0.505 | 0.478 | 0.45
[1], x1 = 0.3021 | 931.9 | 925.8 | 919.8 | – | – | – | 1212 | 0.543 | 0.513 | 0.482
[1], x1 = 0.4002 | 944.7 | 938.7 | 932.7 | – | – | – | 1231 | 0.595 | 0.56 | 0.525
[1], x1 = 0.5071 | 958.7 | 952.8 | 946.9 | – | – | – | 1250 | 0.646 | 0.607 | 0.568
[1], x1 = 0.6001 | 971.1 | 965.2 | 959.5 | – | – | – | 1269 | 0.707 | 0.671 | 0.616
[1], x1 = 0.6972 | 984.4 | 978.6 | 972.8 | – | – | – | 1288 | 0.791 | 0.735 | 0.684
[1], x1 = 0.799 | 998.7 | 993 | 987.2 | – | – | – | 1307 | 0.908 | 0.843 | 0.778
[1], x1 = 0.8991 | 1013.3 | 1007.7 | 1001.9 | – | – | – | 1327 | 1.029 | 0.951 | 0.873
[1], x1 = 1 | 1028.6 | 1022.9 | 1017.2 | – | – | – | 1345 | 1.195 | 1.095 | 1.008
[2], x1 = 0.1004 | – | – | – | 1.3753 | 1.3716 | 1.368 | – | – | – | –
[2], x1 = 0.2001 | – | – | – | 1.3798 | 1.3764 | 1.373 | – | – | – | –
[2], x1 = 0.3021 | – | – | – | 1.3843 | 1.3813 | 1.3782 | – | – | – | –
[2], x1 = 0.4002 | – | – | – | 1.389 | 1.3862 | 1.3834 | – | – | – | –
[2], x1 = 0.5071 | – | – | – | 1.3942 | 1.3915 | 1.3889 | – | – | – | –
[2], x1 = 0.6001 | – | – | – | 1.3991 | 1.3964 | 1.3938 | – | – | – | –
[2], x1 = 0.6972 | – | – | – | 1.4041 | 1.4015 | 1.3989 | – | – | – | –
[2], x1 = 0.799 | – | – | – | 1.4094 | 1.4069 | 1.4044 | – | – | – | –
[2], x1 = 0.8991 | – | – | – | 1.4148 | 1.4122 | 1.4097 | – | – | – | –
[2], x1 = 1 | – | – | – | 1.4203 | 1.4164 | 1.4145 | – | – | – | –

CCOC(=O)CC(=O)OCC [diethyl 1,3-propanedioate] + C1COCCO1
Details | mass density, 298.15 K [kg/m3] | mass density, 303.15 K [kg/m3] | mass density, 308.15 K [kg/m3] | refractive index, 298.15 K | refractive index, 303.15 K | refractive index, 308.15 K | speed of sound, 298.15 K [m/s] | viscosity, 298.15 K [mPa·s] | viscosity, 303.15 K [mPa·s] | viscosity, 308.15 K [mPa·s]
[1], x2 = 0 | 1049.6 | 1044.2 | 1038.8 | – | – | – | 1304 | 1.941 | 1.755 | 1.602
[1], x2 = 0.1005 | 1048.1 | 1042.8 | 1037.4 | – | – | – | 1308 | 1.858 | 1.698 | 1.537
[1], x2 = 0.1982 | 1046.6 | 1041.2 | 1035.8 | – | – | – | 1312 | 1.777 | 1.626 | 1.476
[1], x2 = 0.2959 | 1044.9 | 1039.6 | 1034.2 | – | – | – | 1316 | 1.7 | 1.556 | 1.413
[1], x2 = 0.3959 | 1043 | 1037.7 | 1032.3 | – | – | – | 1320 | 1.619 | 1.484 | 1.349
[1], x2 = 0.4959 | 1041 | 1035.6 | 1030.2 | – | – | – | 1324 | 1.542 | 1.415 | 1.287
[1], x2 = 0.5951 | 1038.8 | 1033.4 | 1028 | – | – | – | 1328 | 1.465 | 1.346 | 1.227
[1], x2 = 0.6944 | 1036.4 | 1030.9 | 1025.5 | – | – | – | 1332 | 1.391 | 1.28 | 1.17
[1], x2 = 0.796 | 1033.7 | 1028.2 | 1022.8 | – | – | – | 1337 | 1.316 | 1.214 | 1.111
[1], x2 = 0.8977 | 1030.9 | 1025.4 | 1019.9 | – | – | – | 1341 | 1.249 | 1.153 | 1.057
[2], x2 = 0 | – | – | – | 1.4132 | 1.4108 | 1.4085 | – | – | – | –
[2], x2 = 0.1005 | – | – | – | 1.4135 | 1.4113 | 1.409 | – | – | – | –
[2], x2 = 0.1982 | – | – | – | 1.4139 | 1.412 | 1.4093 | – | – | – | –
[2], x2 = 0.2959 | – | – | – | 1.4143 | 1.4123 | 1.4095 | – | – | – | –
[2], x2 = 0.3959 | – | – | – | 1.4147 | 1.4127 | 1.4099 | – | – | – | –
[2], x2 = 0.4959 | – | – | – | 1.415 | 1.4137 | 1.4103 | – | – | – | –
[2], x2 = 0.5951 | – | – | – | 1.4161 | 1.4147 | 1.4113 | – | – | – | –
[2], x2 = 0.6944 | – | – | – | 1.4171 | 1.4157 | 1.4122 | – | – | – | –
[2], x2 = 0.796 | – | – | – | 1.4181 | 1.4167 | 1.4132 | – | – | – | –
[2], x2 = 0.8977 | – | – | – | 1.4192 | 1.4231 | 1.4141 | – | – | – | –

C1COCCO1 [1,4-dioxane] + CCOC(=O)CC(=O)OCC
x1 = 1
Details | mass density, 298.15 K [kg/m3] | mass density, 303.15 K [kg/m3] | mass density, 308.15 K [kg/m3] | refractive index, 298.15 K | refractive index, 303.15 K | refractive index, 308.15 K | speed of sound, 298.15 K [m/s] | viscosity, 298.15 K [mPa·s] | viscosity, 303.15 K [mPa·s] | viscosity, 308.15 K [mPa·s]
[1] | 1028.6 | 1022.9 | 1017.2 | – | – | – | 1345 | 1.196 | 1.095 | 1.008
[2] | – | – | – | 1.4203 | 1.4164 | 1.4145 | – | – | – | –
